Measured values: publication PMC6917776, “Discovery of a chemical probe for PRDM9” (Nature Communications, 2019)
Where “and” joins values, the source holds several entries; their conditions need not be identical. Equal entries are not always repeated.

Legend:
Histamine H3 = target: T1, Histamine H3 (Homo sapiens, UniProt Q9Y5N1); assay: Eurofins Panlabs panel, radioligand binding; conditions: at 10 µM
T1 construct: NIMH Psychoactive Drug Screening Program, University of North Carolina at Chapel Hill

Muscarinic M2 = target: T2, Muscarinic M2 (Homo sapiens, UniProt P08172); assay: GPCR functional activity, GloSensor assay (agonist and antagonist mode); format: cell-based; conditions: for M2 Tango Agonist, raw signal / M2 Tango Antagonist, raw signal: replicates 1-4
T2 construct: NIMH Psychoactive Drug Screening Program, University of North Carolina at Chapel Hill
T2 sequence (P08172 1-466): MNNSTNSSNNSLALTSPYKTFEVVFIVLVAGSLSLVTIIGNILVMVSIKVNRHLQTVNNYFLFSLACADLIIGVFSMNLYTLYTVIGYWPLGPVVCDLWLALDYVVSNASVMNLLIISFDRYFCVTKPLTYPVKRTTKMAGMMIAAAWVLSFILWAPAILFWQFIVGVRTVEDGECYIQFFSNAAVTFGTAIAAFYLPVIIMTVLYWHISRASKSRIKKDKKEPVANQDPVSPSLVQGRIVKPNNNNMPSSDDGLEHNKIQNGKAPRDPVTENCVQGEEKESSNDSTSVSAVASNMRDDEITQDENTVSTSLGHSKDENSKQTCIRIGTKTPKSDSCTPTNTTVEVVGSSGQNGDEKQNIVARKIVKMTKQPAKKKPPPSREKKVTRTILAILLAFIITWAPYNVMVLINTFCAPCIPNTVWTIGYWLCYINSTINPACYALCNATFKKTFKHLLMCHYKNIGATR

PRDM9 = PRDM9 (Homo sapiens, UniProt Q9NQV7); assay: PRDM9 cellular assay: H3K4me3 of exogenous H3-GFP in MCF7 cells (western blot); format: cell-based; conditions: for H3K4me3/GFP - western blot: MCF7, 20 h, replicates
Method: HEK293T (kind gift from Sam Benchimol, York University), or MCF7 (ATCC® HTB-22™), cells were plated (12 well plates) and next day co-transfected with 0.1 (HEK293T) or 0.2 (MCF7) µg of GFP-tagged histone H3 and with 0.1 (HEK293T) or 0.2 (MCF7) µg of Flag-tagged PRDM9/PRDM9 catalytic mutant (Y357S) and 0.8 or 0.6 µg of empty vector using JetPRIME® transfection reagent, following manufacturer instructions. After 4 h media was removed and cells were treated with compounds for 20 h. Next day, cells were lysed in lysis buffer (20 mM Tris-HCl pH 8, 150 mM NaCl, 1 mM EDTA, 10 mM MgCl2, 0.5% TritonX-100, 12.5 U mL^−1 benzonase (Sigma), complete EDTA-free protease inhibitor cocktail (Roche)). After 2 min incubation at RT, SDS was added to final 1% concentration. Cell lysates were analyzed in western blot for GFP and H3K4me3 levels. All cell lines were mycoplasma negative, as determined by MycoAlert™ Mycoplasma Detection Kit (Lonza).
Total cell lysates were resolved in 4–12% Bis-Tris Protein Gels (Invitrogen) and transferred in for 1.5 h (80 V) onto PVDF membrane (Millipore) in Tris-Glycine transfer buffer containing 20% MeOH and 0.05% SDS. Blots were blocked for 1 h in blocking buffer (5% milk in PBS) and incubated with primary antibodies anti-GFP (1:3000, Clontech # 632381), anti-H3K4me3 (1:1000, Millipore, #04-745), anti-histone H3 (1:2000, #ab10799, Abcam), anti-Flag (1:5000, #F4799, Sigma) in blocking buffer (5% BSA in 0.1% Tween 20 PBS) overnight at 4 °C. After five washes with 0.1% Tween 20 PBS the blots were incubated with goat-anti rabbit (IR800) and donkey anti-mouse (IR 680) antibodies (1:5000) in Odyssey Blocking Buffer (LiCor) for 1 h at RT and washed five times with 0.1% Tween 20 PBS. The signal was read on an Odyssey scanner (LiCor) at 800 nm and 700 nm and analyzed with Image Studio Ver.5.2 software. […]
exogenous histone H3 in MCF7 cells. […]
dependent K4 trimethylation of exogenous histone H3 in MCF7 cells. Cells were co-transfected with H3-GFP and PRDM9-FLAG and treated with compounds at indicated concentrations for 20 h. (b) The graph represents non-linear fit of H3K4me3 fluorescence intensities normalized to intensities of GFP. The results are from two independent experiments (n=2). Source data are provided as a Source Data file.
(1 picture or pasted object on this page, not shown here)

Sequence of PRDM9 (Q9NQV7 whole entry): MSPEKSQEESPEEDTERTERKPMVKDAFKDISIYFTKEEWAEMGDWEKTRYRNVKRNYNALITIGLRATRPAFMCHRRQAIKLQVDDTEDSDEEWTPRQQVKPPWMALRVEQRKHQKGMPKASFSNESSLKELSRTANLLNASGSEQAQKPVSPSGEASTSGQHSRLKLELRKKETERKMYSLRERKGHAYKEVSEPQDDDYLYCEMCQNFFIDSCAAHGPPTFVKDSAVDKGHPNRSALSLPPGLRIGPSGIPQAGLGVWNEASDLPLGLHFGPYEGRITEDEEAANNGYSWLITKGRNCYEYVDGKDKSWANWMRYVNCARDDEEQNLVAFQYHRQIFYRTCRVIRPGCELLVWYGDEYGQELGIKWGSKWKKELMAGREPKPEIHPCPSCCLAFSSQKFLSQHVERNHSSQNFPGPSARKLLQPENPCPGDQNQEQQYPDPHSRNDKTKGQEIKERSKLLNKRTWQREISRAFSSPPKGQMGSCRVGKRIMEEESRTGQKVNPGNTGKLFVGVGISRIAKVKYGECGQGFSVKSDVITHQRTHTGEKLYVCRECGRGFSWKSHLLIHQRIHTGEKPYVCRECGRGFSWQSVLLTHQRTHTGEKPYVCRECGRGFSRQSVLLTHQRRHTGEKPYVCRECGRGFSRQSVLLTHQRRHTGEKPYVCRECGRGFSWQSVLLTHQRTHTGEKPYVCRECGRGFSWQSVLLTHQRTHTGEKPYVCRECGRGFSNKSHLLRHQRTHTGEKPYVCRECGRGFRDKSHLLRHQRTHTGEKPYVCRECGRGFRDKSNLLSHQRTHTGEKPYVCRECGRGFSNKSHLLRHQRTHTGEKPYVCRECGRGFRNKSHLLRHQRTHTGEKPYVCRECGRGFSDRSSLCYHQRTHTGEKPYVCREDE
T1 sequence (Q9Y5N1 whole entry): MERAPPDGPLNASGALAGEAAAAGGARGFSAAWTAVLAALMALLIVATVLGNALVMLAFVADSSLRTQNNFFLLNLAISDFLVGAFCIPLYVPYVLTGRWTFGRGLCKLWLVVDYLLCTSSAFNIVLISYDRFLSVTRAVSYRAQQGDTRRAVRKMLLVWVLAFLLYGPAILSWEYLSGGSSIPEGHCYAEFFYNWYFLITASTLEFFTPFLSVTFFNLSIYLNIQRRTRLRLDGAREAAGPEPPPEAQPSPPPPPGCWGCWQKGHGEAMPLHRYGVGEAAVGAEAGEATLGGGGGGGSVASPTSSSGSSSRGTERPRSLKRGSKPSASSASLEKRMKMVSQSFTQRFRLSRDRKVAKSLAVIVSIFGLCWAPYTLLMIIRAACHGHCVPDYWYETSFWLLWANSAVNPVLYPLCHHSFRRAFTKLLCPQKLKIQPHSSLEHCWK

**Q.** Which results are given for `COc1cc(OC)cc(-c2noc(N3CCN(C)C4(CCN(c5ccnc(C)c5)CC4)C3)n2)c1` [MRK-740]?
**A.** Binding (Histamine H3): > 50%; Functional activity (in words) (Muscarinic M2; agonist and antagonist mode): no functional activity; M2 Tango Agonist, raw signal (Muscarinic M2; log[MRK-740] -4.52): 1230.87 and 608.6 and 2018.05 and 925.229; M2 Tango Antagonist, raw signal (Muscarinic M2; log[MRK-740] -4.52): 1892.98 and 2737.32 and 2580.15 and 2057.03; M2 Tango Agonist, raw signal (Muscarinic M2; log[MRK-740] -5): 1170.4 and 556.928 and 885.65 and 2239.04; M2 Tango Antagonist, raw signal (Muscarinic M2; log[MRK-740] -5): 2819.92 and 2620.3 and 3056.24 and 3398.11; M2 Tango Agonist, raw signal (Muscarinic M2; log[MRK-740] -5.52): 908.738 and 686.657 and 1321.02 and 1693.72; M2 Tango Antagonist, raw signal (Muscarinic M2; log[MRK-740] -5.52): 11268.6 and 11778 and 17270.9 and 14621.3; M2 Tango Agonist, raw signal (Muscarinic M2; log[MRK-740] -6): 612.997 and 2403.96 and 980.199 and 1368.29; M2 Tango Antagonist, raw signal (Muscarinic M2; log[MRK-740] -6): 16800.4 and 13053.9 and 12658.1 and 16097; M2 Tango Agonist, raw signal (Muscarinic M2; log[MRK-740] -6.52): 1008.78 and 553.629 and 1327.61 and 250.195; M2 Tango Antagonist, raw signal (Muscarinic M2; log[MRK-740] -6.52): 19522.3 and 17447.6 and 21435.3 and 11694.3; M2 Tango Agonist, raw signal (Muscarinic M2; log[MRK-740] -7): 841.674 and 505.256 and 883.451 and 1474.94; M2 Tango Antagonist, raw signal (Muscarinic M2; log[MRK-740] -7): 19642.8 and 20162.6 and 13226 and 9835.52; M2 Tango Agonist, raw signal (Muscarinic M2; log[MRK-740] -7.52): 1908.11 and 681.16 and 1388.08 and 3242.84; M2 Tango Antagonist, raw signal (Muscarinic M2; log[MRK-740] -7.52): 21785.3 and 16504.3 and 11050.6 and 14699.4; M2 Tango Agonist, raw signal (Muscarinic M2; log[MRK-740] -8): 903.241 and 865.861 and 1293.53 and 833.978; M2 Tango Antagonist, raw signal (Muscarinic M2; log[MRK-740] -8): 17075.8 and 13974.2 and 18134.9 and 13350; M2 Tango Agonist, raw signal (Muscarinic M2; log[MRK-740] -8.52): 3423.68 and 634.694 and 1797.23 and 346.523; M2 Tango Antagonist, raw signal (Muscarinic M2; log[MRK-740] -8.52): 19019.9 and 15122.7 and 15169.2 and 14917.8; M2 Tango Agonist, raw signal (Muscarinic M2; log[MRK-740] -9): 2386.23 and 137.073 and 3399.79 and 858.202; M2 Tango Antagonist, raw signal (Muscarinic M2; log[MRK-740] -9): 17183.9 and 21120.4 and 14888.7 and 14358.1; M2 Tango Agonist, raw signal (Muscarinic M2; log[MRK-740] -9.52): 623.448 and 315.598 and 869.448 and 1092.96; M2 Tango Antagonist, raw signal (Muscarinic M2; log[MRK-740] -9.52): 22350.3 and 15858.2 and 16819.1 and 15951.3; M2 Tango Agonist, raw signal (Muscarinic M2; log[MRK-740] -10): 2109.3 and 935.517 and 704.979 and 1937.8; M2 Tango Antagonist, raw signal (Muscarinic M2; log[MRK-740] -10): 21021.6 and 16763.8 and 20216.2 and 13987.5; M2 Tango Agonist, raw signal (Muscarinic M2; log[MRK-740] -10.52): 1187.14 and 1805.66 and 1171.68 and 1424.71; M2 Tango Antagonist, raw signal (Muscarinic M2; log[MRK-740] -10.52): 18293 and 14853.8 and 17839.5 and 22558.2; M2 Tango Agonist, raw signal (Muscarinic M2; log[MRK-740] -11): 648.751 and 5178.11 and 914.431 and 991.746; M2 Tango Antagonist, raw signal (Muscarinic M2; log[MRK-740] -11): 17836.6 and 15099.5 and 17153.4 and 15587.9; M2 Tango Agonist, raw signal (Muscarinic M2; log[MRK-740] -11.52): 2954.16 and 1388.16 and 1004.4 and 790.728; M2 Tango Antagonist, raw signal (Muscarinic M2; log[MRK-740] -11.52): 13959.9 and 19316.4 and 14923.6 and 25119.7; M2 Tango Agonist, raw signal (Muscarinic M2; log[MRK-740] -12): 606.579 and 917.242 and 726.065 and 3353.4; M2 Tango Antagonist, raw signal (Muscarinic M2; log[MRK-740] -12): 15989 and 24141.3 and 15762.3 and 20389.2; H3K4me3/GFP - western blot (PRDM9; 0.256 µM): 72.3313 % control and 76.4161 % control; H3K4me3/GFP - western blot (PRDM9; 0.64 µM): 45.8788 % control and 51.2576 % control; H3K4me3/GFP - western blot (PRDM9; 1.6 µM): 25.9658 % control and 41.0483 % control; H3K4me3/GFP - western blot (PRDM9; 4 µM): 12.0678 % control and 16.7081 % control; H3K4me3/GFP - western blot (PRDM9; 10 µM): 8.819 % control and 7.277 % control; Inhibition of H3K4 methylation in MCF7 cells, compared with HEK293T (in words) (PRDM9; 20 h): equipotent inhibitor of H3K4 methylation
